Drawing on ChEMBL document CHEMBL1255310, “Simvastatin treatment shows no effect on the incidence of cerebral malaria or parasitemia during experimental malaria” (2008), this text covers Activity for one compound.

What all share (type): functional
Test [1] relates to Plasmodium berghei. Briefly: Antiplasmodial activity against Plasmodium berghei ANKA infected in C57BL/6 mice (Mus musculus) assessed as parasitemia at 2 ug/g, intraperitoneally on days 2,4 and 6.
Test [2] has as its system Plasmodium berghei. Briefly: Antiplasmodial activity against Plasmodium berghei ANKA infected in C57BL/6 mice (Mus musculus) assessed as parasitemia at 0.5 ug/g, intraperitoneal on day 2, 1 ug/g, intraperitoneal on day 4 followed by 2 ug/g on day 6.
In test [3] the test system is Plasmodium berghei. Briefly: Antiplasmodial activity against Plasmodium berghei ANKA infected in C57BL/6 mice (Mus musculus) assessed as parasitemia at 40 ug/g, intraperitoneally on days 2,4 and 6.
Test [4] has as its system Plasmodium berghei. Briefly: Antiplasmodial activity against Plasmodium berghei ANKA infected in C57BL/6 mice (Mus musculus) assessed as parasitemia at 100 ug/g, perorally on days 1,3 and 5.

Turning to `CCC(C)(C)C(=O)O[C@H]1C[C@@H](C)C=C2C=C[C@H](C)[C@H](CC[C@@H]3C[C@@H](O)CC(=O)O3)[C@H]21` [SIMVASTATIN], the Activity is given as 2.38% in the test with Plasmodium berghei [1], 3.04% in the test on Plasmodium berghei [2], 2.04% in the test on Plasmodium berghei [3] and 2.98% in the test on Plasmodium berghei [4].
